Experiments:
houseflies = experiment: Laboratory sticky trap bioassay of spatial repellency with egg powder attractant; type: in vivo, housefly (Musca domestica); conditions: egg powder plus repellent, FIG. 13
Protocol: Laboratory bioassay tests were carried out to investigate the efficacy of some of the EAD-active compounds described above to act as spatial repellents against several insects. The procedure for the bioassay tests is described in Example 2 below. Briefly stated, the bioassay included using egg powder (EP) as an attractant for flies, while the compound whose insect repellency was being tested was placed in proximity to the egg powder. In FIGS. 11-13, the bioassay was carried out on houseflies using devices known by the designation Trécé Pherocon® VI sticky traps.
The following lab bioassay tests were employed to illustrate the efficacy of the compounds to effectively act as spatial repellents for flies. Three sets of tests were conducted in a fly testing room (23° C., 70% RH, and 12/12 (L/D) light regime illuminated by fluorescent lights). Two sets of tests were carried out using Trécé Pherocon® VI traps with sticky inserts, which were set up on poles evenly spaced on a rotating table. The traps were ca. 1 m above a table surface, and ca. 1 m apart from each other. Two grams of egg powder in a white cap (4 cm in diameter, 0.5 cm in height) used as an attractant was put on the center of the sticky insert in the sticky trap. The potential repellent candidate chemicals were loaded into polyethylene bags, and were hung under the inner roof of the traps, 1-1.5 cm above the egg powder attractant. A control had the empty white cap and blank polyethylene bag, while the positive control had only the egg powder and an empty polyethylene bag. The test table was rotated 1.5 r.p.h. […] About 200-300 houseflies (2-3 days old) were released into the testing room for each test. Tests were normally run from 8:00 am to 5:00 pm, and the numbers of houseflies caught in each trap were counted after each test. The results of these tests are shown in FIGS. 11-13 and described above.

[1] = test system: housefly (Musca domestica) antenna; experiment: GC-EAD antennal response, housefly; conditions: female housefly antenna; synthetic mixture, about 100 ng of each compound; FIG. 3
Source text: The sesquiterpene hydrocarbons and their derivatives disclosed herein have been identified as suitable insect repellents by testing via a gas chromatographic-electroantennographic detection (GC-EAD) method as described in Example 1 below. This method can be used to efficiently screen for potentially behaviorally active compounds, including insect repellents, attractants, deterrents, or attraction-inhibitors from complex natural sources or synthetic mixtures.
The GC-EAD responses of the female housefly antenna were tested on a synthetic mixture of 1-octen-3-ol, a known attractant used as a positive control, and representative sesquiterpene hydrocarbons and derivatives, (+)-longipinene, (−)-isolongifolene, (+)-longifolene, β-caryophyllene, α-humulene, and isolongifolenone, with about 100 ng of each compound in the mixture.
The GC-EAD responses of the male housefly antenna were tested on a synthetic mixture of 1-octen-3-ol, and two representative sesquiterpenes, β-caryophyllene and isocaryophyllene, with about 100 ng of each compound in the mixture.
(§1) The following procedures were employed to test the EAD response of an insect antenna to a repellent compound. The GC-EAD technique provides an efficient tool for screening behaviorally active repellents. Several synthetic mixtures of potential insect repellent candidates, mostly sesquiterpene hydrocarbons and derivatives, were analyzed in splitless mode using a Varian CP-3800 GC equipped with a polar column (Innowax; 1.0 μm film thickness, 30 m×0.53 mm ID; J & W Scientific), and a 1:1 effluent splitter that allowed simultaneous flame ionization detection (FID) and EAD of the separated volatile compounds. Helium was used as the carrier gas, and the injector temperature was 220° C. The column temperature was 50° C. for 2 min, rising to 240° C. at 10° C./min, then held for 10 min. The outlet for the EAD was held in a humidified air stream flowing at 0.5 liter/min. over an antennal preparation. A glass capillary indifferent electrode filled with Beadle-Ephrussi Ringer, and grounded via a silver wire, was inserted into the severed insect's head with the antennae. A similar recording electrode connected to a high-impedance DC amplifier with automatic baseline drift compensation was placed in contact with the distal end of one antenna (Zhang et al., Chemoecology, 10:69-80 (2000)). The antennal signals were stored and analyzed on a PC equipped with a serial IDAC interface box and the program EAD ver. 2.5 (Syntech, Hilversum, The Netherlands). The compound 1-octen-3-ol (known attractant for many flies and mosquitoes) was included in most of the synthetic mixtures, as a positive control. The results of the experiments are shown in FIGS. 1-10 and described above.

[2] = test system: female mosquito Culex pipiens antenna; experiment: GC-EAD antennal response, Culex pipiens; conditions: female Culex pipiens antennae; about 100 ng of each compound; responses weak, but repeatable; FIGS. 7 and 8
Protocol: The GC-EAD responses of the female mosquito Culex pipiens antenna were tested on a synthetic mixture of 1-octen-3-ol, and two sesquiterpene hydrocarbons, β-caryophyllene and isocaryophyllene, with about 100 ng of each compound in the mixture.
The GC-EAD responses of the female mosquito Culex pipiens antenna were tested on a synthetic mixture of 1-octen-3-ol, and representative sesquiterpene hydrocarbons and derivatives including (+)-longipinene, (−)-isolongifolene, (+)-longifolene, β-caryophyllene, and isolongifolenone, with about 100 ng of each compound in the mixture.
Antennal responses were weak, but repeatable, thus are considered to be true responses.
as §1

[3] = test system: female antennae of sand fly Phlebotomus papatasi and mosquitoes Aedes aegypti, Anopheles gambiae, Anopheles stephensi; experiment: GC-EAD responses of sand fly and three mosquitoes to synthetic mixtures; conditions: about 100 ng of each compound, on one or more of the sand fly or the mosquitoes, FIGS. 9 and 10
Protocol: The GC-EAD responses of female antennae of the sand fly, Phlebotomus papatasi, and three species of mosquitoes, Aedes aegypti, Anopheles gambiae, and anopheles stephensi were tested on a synthetic mixture of 1-octen-3-ol, six sesquiterpene hydrocarbons including (+)-longipinene, (−)-isolongifolene, (+)-longifolene, β-caryophyllene, isolongifolenone, and α-humulene, and several known insect repellents including ZE-nepetalactone, EZ-nepetalactone, with about 100 ng of each compound in the mixture.
The GC-EAD responses of female antennae of the sand fly, Phlebotomus papatasi, and three species mosquitoes, Aedes aegypti, Anopheles gambiae, and anopheles stephensi were tested on a synthetic mixture of 1-octen-3-ol, linalool, β-caryophyllene oxide, isocaryophyllene, β-caryophyllene, and α-humulene, and DEET, with about 100 ng of each compound in the mixture.
as §1

**Q.** `CC1(C)C2=CCCC(C)(C)C23CCC1C3` (single isomer, unassigned; (-)) [(−)-isolongifolene, 2,2,7,7-tetramethyltricyclo undec-5-ene] was tested. Which “female house flies per trap” value (houseflies; egg powder alone 76 females) did it give?
**A.** Its value is 39 house flies per trap.

**Q.** And the “male house flies per trap” value (houseflies; egg powder alone 95 males)?
**A.** The value was 30 house flies per trap.

**Q.** What about the GC-EAD antennal activity [1] of the same compound?
**A.** Its GC-EAD antennal activity is “active”.

**Q.** What about the GC-EAD antennal activity [2] of the same compound?
**A.** The GC-EAD antennal activity was “active”.

**Q.** What about the GC-EAD antennal activity [3] of the same compound?
**A.** Its GC-EAD antennal activity is “antennally active”.

Source: patent publication US8057829B2, “Methods for repelling insects using sesquiterpene hydrocarbons and their derivatives” (Sterling International Inc., priority 2008, dated 2011)
